We go through two molecules from patent publication US12410419B2, “Use of enzyme that cleaves both alpha- and beta- 1,4-glycosidic bonds” (Korea University Research and Business Foundation, priority 2019, dated 2025).

Series [1] concerns BT_2970 bacterial fucosidase, B. subtilis thetaiotaomicron. To be noted: Table 1; Sakurama 2012; cited from earlier work.
Series [2] deals with BT_2970 bacterial fucosidase. To be noted: Table 1; Sakurama 2012; cited from earlier work.
For series [3], the system named is AlfB bacterial fucosidase, L. casei. More on the design: Vmax: unit not given here. To be noted: Table 1; Rodriguez-Diaz 2011; cited from earlier work.
For series [4], the system named is XCC2888 bacterial fucosidase, Xanthomonas campestris. To be noted: Table 1, Dupoiron 2015, cited from earlier work.
Series [5] has as its system TM0306 bacterial fucosidase, T. maritima. To be noted: Table 1, Sulzenbacher 2004, cited from earlier work.
The target of series [6] is Vibrio sp. strain EJY3 α-L-fucosidase VeFUC (VEJY3_11310, UniProt H2IHW9.1), wild type, SEQ ID NO: 1 (Vibrio sp. EJY3, UniProt A0ACD6BAZ0). Kind of series: Kinetic parameters of VeFUC for pNP-α-L-Fuc. The series is classed as biochemical. To be noted: Table 1, Present invention. As to the method: Genomic DNA of Vibrio sp. strain EJY3 for cloning a gene encoding VeFUC was prepared as follows: Vibrio sp. strain EJY3 was cultured in a minimum medium consisting of 23 g/L Instant Ocean Sea Salt (Aquarium Systems, Mentor, OH, USA), 50 mM Tris-HCl (pH 7.4), 2 g/L glucose, 1 g/L yeast extract and 0.5 g/L ammonium chloride at 303 K and 200 rpm for 18 hours. The genomic DNA was extracted from a culture using the DNeasy Blood & Tissue Kit (Qiagen, Valencia, CA, USA) according to the manufacturer's protocol. A target gene, VEJY3_11310 (UniProt accession no. H2IHW9.1) was amplified by PCR using the following primers. The underlined parts are BamHI and XhoI restriction enzyme sites; […]
(§1) Recombinant E. coli loaded with the pET21a-VeFUC plasmid was grown at 310 K and 200 rpm until an absorbance measured at 600 nm in a culture Luria-Bertani (LB) broth containing 100 mg L^−1 ampicillin reached 0.6. […] The concentrated enzyme solution was analyzed by bicinchoninic acid (BCA) protein analysis (Thermo Fisher Scientific, Waltham, MA) and 12% (w/v) SDS-PAGE gel electrophoresis to determine the concentration, size and purity of the target protein.
(§2) The reaction was terminated by adding 500 μl of 1 M sodium carbonate thereto, and the absorbance of the reaction mixture was quantified by spectrophotometry at 405 nm. […]

Series [7] deals with Alf1_Wf bacterial fucosidase, Wenyingzhuangia fucanilytica. To be noted: Table 1; Dong 2017; cited from earlier work.
The subject of series [8] is TfFuc1 bacterial fucosidase, Tannerella forsythia. To be noted: Table 1; Megson 2015; cited from earlier work.
The subject of series [9] is AlfA bacterial fucosidase, Lactobacillus casei. To be noted: Table 1; Rodriguez-Diaz 2011; cited from earlier work.
The test system of series [10] is AlfC bacterial fucosidase, L. casei. More on the design: Vmax: unit not given here. To be noted: Table 1; Rodriguez-Diaz 2011; cited from earlier work.
Series [11] has as its system aLfuk1 bacterial fucosidase. To be noted: Table 1; Benesova 2013; cited from earlier work.
Substrate in series [12]: C[C@@H]1O[C@@H](Oc2ccc([N+](=O)[O-])cc2)[C@@H](O)[C@H](O)[C@@H]1O
Kind of series: Kinetic parameters of VeFUC for pNP-α-L-Fuc. The series is classed as biochemical, Vibrio sp. strain EJY3. To be noted: other: text, 313 K, 10 mM sodium acetate buffer (pH 6.0), Lineweaver-Burk plot, 40.0 °C. As to the method:
Genomic DNA of Vibrio sp. strain EJY3 for cloning a gene encoding VeFUC was prepared as follows: Vibrio sp. strain EJY3 was cultured in a minimum medium consisting of 23 g/L Instant Ocean Sea Salt (Aquarium Systems, Mentor, OH, USA), 50 mM Tris-HCl (pH 7.4), 2 g/L glucose, 1 g/L yeast extract and 0.5 g/L ammonium chloride at 303 K and 200 rpm for 18 hours. The genomic DNA was extracted from a culture using the DNeasy Blood & Tissue Kit (Qiagen, Valencia, CA, USA) according to the manufacturer's protocol. A target gene, VEJY3_11310 (UniProt accession no. H2IHW9.1) was amplified by PCR using the following primers. The underlined parts are BamHI and XhoI restriction enzyme sites;
Recombinant proteins were purified using a HisTrap column (GE Healthcare, Piscataway, NJ, USA) by adding sequences encoding 6 histidines to the reverse primer. A PCR product was treated with BamHI and XhoI restriction enzymes and subsequently ligated to a pET-21a plasmid (Novagen, Darmstadt, Germany) to construct a PET21a-VeFUC plasmid.
as §1, §2
In order to measure the kinetic parameters of VeFUC for pNP-α-L-Fuc, enzymatic reactions were performed at different concentrations of pNP-α-L-Fuc in a range of 0.109 to 0.875 mM under the same conditions described above. Vmax, Km and kcat, which are enzyme kinetic parameters of VeFUC were measured from a Lineweaver-Burk plot. […]

Take `C[C@@H]1O[C@@H](Oc2ccc([N+](=O)[O-])cc2)[C@@H](O)[C@H](O)[C@@H]1O` [pNP-α-L-Fuc, p-nitrophenyl-α-L-fucopyranoside]: the Km – broadly, the concentration of substrate that gives half-maximal velocity – in [1] was 1500 µM; in [3] it was 2900 µM; in [4], 700 ± 100 µM; in [5], 34 ± 2 µM; in series [7], 3300 ± 420 µM; in series [8], 670 ± 200 µM. Besides, the figures for the Michaelis-Menten constant (Km) in series [9], in series [10] and in [11] were 270 µM, 5300 µM and 440 ± 20 µM, respectively. In addition, the Kcat in series [2] is 1.3 s⁻¹; in [4] (in 1/s), 6.1 ± 2.0; in series [5] (in 1/s) it was 5.4 ± 0.2; in series [6] (in 1/s), 4.81 ± 1.8; in series [7], 5.44 s⁻¹. Besides, the Vmax is reported as 6 in series [3]; 24.8 ± 0.9 in series [6]; 4.75 in series [7]; 20.4 in series [8]; 22.2 in [10].

B1: Vibrio sp. strain EJY3 α-L-fucosidase VeFUC (VEJY3_11310, UniProt H2IHW9.1), wild type, SEQ ID NO: 1 (Vibrio sp. EJY3) (protein)
chain: MTKPTAGELTGTSSQATSQLDNRNAFTGVSKQGLNRWKKNTFGMFIHWGLYCHRDLAGYYQGQYYDIISEWLPHFARIPMRDYKEYASDFNPSEFDADQVTALAKTAGMNYMVVTAKHHDGFAMYHSPSHPFNITDATPFKRDPVAELSQSCRHKDLDFGLYYSHVIDWENENAVSKAPNDWDFNPDQANYQEYWNNKCLPQVNELLEQYGDLCSLWFDMGGFDVQEEADHVRRIGELMALIRKKQPDAVVNSRVTAPECEYQLDWDIKTGHDNYMEPLYIKPYYWEGIATSNDNWGYSRNDNNTKSSKDLINQLCSVVSRGGNFLLNITLDHNGRIPQSLVRLLSEIGQWMQVNQEAVIDTEATPLQTGFNWGVVTHRPATNKLYLHVQRQPEQNVICLHSLNNRIKQVRLLDNQIKGHVSYLQKTHTDTGITASTLNLQLGHNYDRMPLVIELEYDGELDINPIVHQDRLAKVRLDTLNIAHFDPEKLTYRWTFQIQSPGRFALDLVSLETMHHKDPQWVHNGKTGRISCGGQSWEFELNLDKTDTNDAQVPWKNIHSRLGELHFPQAGEYTLEFSELPLAIDQSEKYGQDYINLEYLQLGPRLA
In the case of B1, in [12], the Km was determined as 6340 ± 480 µM, the Vmax is listed as 24.8±0.9 U mg^−1 protein and the kcat (usually the maximal rate divided by the concentration of active sites) stood at 4.81 ± 1.8 s⁻¹.
